What was measured:
[1] = test system: A549 (human lung cancer cells); experiment: MTT cytotoxicity assay; type: cell-based; conditions: 48 h incubation, mean ± SD
Protocol: (§1) The anticancer activities of RuRe-1 and RuRe-2 against four cancer cell lines: HeLa (human cervical cancer cells), HepG2 (human hepatocellular carcinoma), A549 (human lung cancer cells), A549R (cisplatin-resistant A549) and one normal cell line LO2 (human normal liver cells) were determined by 3-(4,5-dimethylthiazole)-2,5-diphenyltetraazolium bromide (MTT) assay, while the mononuclear complexes Ru-1, Ru-2, Re-1 and cisplatin were selected as controls. […] And the in vitro antiproliferative efficacies of the compounds against HeLa cells were in the following order: RuRe-2 > RuRe-1 > Re-1 > cisplatin > Ru-1 > Ru-2. […] The anticancer activity of the mononuclear rhenium complex Re-1 was between 5.6 μM and 8.0 μM, which contributed the most to the antitumor activities of the heteronuclear Ru(II)-Re(Ⅰ) metal complexes.
(§2) Cell lines and culture conditions. HeLa, HepG2, A549, A549R and LO2 cells were purchased from Nanjing KeyGen Biotech., and cultured in DMEM or RPMI 1640 complete medium at 37 ℃ with 5% CO2 atmosphere.
(§3) In vitro cytotoxicity assay. The anti-tumor activity of mononuclear complexes Ru-1, Ru-2, Re-1 and heteronuclear RuRe-1 and RuRe-2 were determined by MTT (5 mg/mL) assay. Cells were placed in 96-well plates and cultured for 24 h at 37 ℃ in a 5% CO2 incubator. After replacing the culture medium with fresh medium containing RuRe-1 or RuRe-2 at the indicated concentration, cells were cultured for 48 h. 20 μL MTT was added to each well 4 h before the end of the incubation. Subsequently, the liquid in the cell wells was poured out and 150 μL/well DMSO was added to dissolve the MTT-formazan crystals. The absorbance of living cells at 570 nm was detected.

[2] = test system: HeLa (human cervical cancer cells); experiment: MTT cytotoxicity assay; type: cell-based; conditions: 48 h incubation, mean ± SD
Protocol: as §1, §2, §3

[3] = test system: HepG2 (human hepatocellular carcinoma); experiment: MTT cytotoxicity assay; type: cell-based; conditions: 48 h incubation, mean ± SD
Protocol: as §1, §2, §3

[4] = test system: LO2 (human normal liver cells); experiment: MTT cytotoxicity assay; type: cell-based; conditions: 48 h incubation, mean ± SD
Protocol: as §1, §2, §3

[5] = n-octanol/water partition coefficient by shaking flask method; type: physicochemical
Text: Drugs exert their effects through pharmacokinetic processes such as absorption, distribution, and metabolism, which are closely related to the n-octanol/water partition coefficient of the drug (log P o/w) ([Choi et al., 2012]).

[6] = Stability in PBS by UV-Vis spectroscopy; type: physicochemical; conditions: 10 μM, PBS, 0, 24 and 48 h
Protocol: The stabilities of RuRe-1 and RuRe-2 in PBS and human serum albumin (HSA) were tested through UV–Vis spectroscopy.
Supplementary Figure 12. UV-Vis absorption spectra of RuRe-1 (10 μM), RuRe-2 (10 μM), Ru-1 (10 μM), Ru-2 (10 μM) and Re-1 (10 μM) in PBS (A) and HSA (B) solution collected at 0, 24, and 48 h, respectively.

HeLa cells [7] = experiment: Hoechst 33342 staining of nuclear morphology; type: cell-based, human; conditions: 24 h
Protocol: First, changes in cell morphology of HeLa cells induced by RuRe-1 and RuRe-2 were examined with 2'-(4-ethoxyphenyl)-5-(4-methyl-1-piperazinyl)-2,5′-bi-1H-benzimidazole trihydrochloride (Hoechst 33342) staining. Hoechst 33342 is a blue fluorescent dye that can penetrate cell membranes and is commonly used to stain cell nuclei ([Tian et al., 2018]).
FIGURE 2 RuRe-1 and RuRe-2 induced HeLa cells apoptosis measured by confocal microscopy with Hoechst 33342 staining (λ ex = 405 nm, λ em = 460 ± 20 nm). The incubation time of the compounds was 24 h. Arrows indicate apoptotic morphological nuclei. Scale bar: 20 μm.
Hoechst 33342 staining assay. After HeLa cells were adhered to the confocal dishes, the medium was replaced with a medium containing the indicated concentrations of RuRe-1 and RuRe-2. After incubation for 24 h, the medium was aspirated and the cells were washed three times with PBS, then fixed with 4% paraformaldehyde. Subsequently, cells were labelled 10 mins with Hoechst 33342 (5 μg/mL) and observed immediately under confocal microscope (λex = 405 nm, λem = 460 ± 20 nm).

HeLa cells [8] = experiment: Intracellular ROS by H2DCFDA staining; type: cell-based, human; conditions: 6 h, confocal microscopy
Protocol: ROS are natural by-product of normal oxygen metabolism and play an important role in cellular signaling transduction and homeostasis in vivo ([Casas et al., 2020]). It has been shown that the excessive production of ROS may cause oxidative stress and lead to cell death ([Jia et al., 2020]). Herein, cells were treated with RuRe-1 and RuRe-2 for 6 h and then stained with 2′,7′-dichlorodihydrouorescein diacetate (H2DCFDA). H2DCFDA is non-fluorescent and can be oxidized by intracellular ROS to highly fluorescent 2′,7′-dichlorofluorescein (DCF) ([Abdel Hadi et al., 2021]). The intensity of green fluorescence can respond to the accumulation of intracellular ROS.
FIGURE 7 RuRe-1 and RuRe-2 induced the elevation of intracellular ROS levels examined by confocal microscopy with H2DCFDA staining (λ ex = 488 nm, λ em = 530 ± 20 nm). The incubation time of the compounds was 6 h. Scale bar: 20 μm.
Measurement of intracellular ROS. After HeLa cells were adhered to the confocal dishes, the medium was replaced with medium containing the indicated concentrations of RuRe-1 and RuRe-2 for 6 h. Subsequently, the medium was aspirated and cells were washed three times with serum-free DMEM. Then, cells were co-incubated with fluorescent dye H2DCFDA (10 μM) at 37 °C for 10 mins and washed three times with PBS and visualized by a confocal microscope (λex = 488 nm, λem = 530 ± 20 nm).

HeLa cells [9] = experiment: Colony formation assay; type: cell-based, human; conditions: 24 h treatment then 7 days
Protocol: The consequence of increased local cell migration is distal invasion, and the clonal growth of distal invasive cells will produce a second tumor ([Wang et al., 2017]). We further investigated the ability of RuRe-1 and RuRe-2 to inhibit the formation of cell colonies by cell colony formation assay.
Colony forming assay. HeLa cells were cultured in 6-well plates at a density of 500 cells per well. After cells had adhered, the medium was replaced with medium containing the indicated concentrations of RuRe-1 and RuRe-2 for 24 h. Subsequently, the medium was replaced with fresh medium and the cells were cultured for 7 days to form colonies. The colonies formed were fixed with 4% paraformaldehyde, and stained with crystal violet (0.005%). Finally, colonies were calculated and the images were taken using digital camera.

Row | SMILES | IC50 [1] [µM] | IC50 [2] [µM] | IC50 [3] [µM] | IC50 [4] [µM] | log P o/w [5] | stability in PBS (UV-Vis spectral characteristics and absorption peaks) [6] | nuclear morphology (Hoechst 33342) (HeLa cells [7]) | intracellular ROS levels (H2DCFDA) (HeLa cells [8]) | cell populations (colonies) compared to the control group (HeLa cells [9]; 9.3 μM) [%] | cell populations (colonies) compared to the control group (HeLa cells [9]; 7.5 μM) [%]
1 | F[P-](F)(F)(F)(F)F.F[P-](F)(F)(F)(F)F.F[P-](F)(F)(F)(F)F.[C-]#[O+].[C-]#[O+].[C-]#[O+].[Re+].[Ru+2].c1ccc(-c2ccccn2)nc1.c1ccc(-c2ccccn2)nc1.c1ccc(-c2ccnc3c2ccc2c(-c4ccccc4)ccnc23)cc1.c1cnc2c(c1)c1nc(-c3ccncc3)[nH]c1c1cccnc12 [RuRe-1, [Ru(bpy)2LRe(CO)3(DIP)](PF6)3] | 11.8 ± 0.4 | 3.1 ± 0.8 | 10 ± 0.8 | 25.1 ± 0.7 | 0.47 | no significant change | typical apoptotic characteristics | increase in intracellular ROS levels in a concentration-dependent manner | 4.8 | –
2 | F[P-](F)(F)(F)(F)F.F[P-](F)(F)(F)(F)F.F[P-](F)(F)(F)(F)F.[C-]#[O+].[C-]#[O+].[C-]#[O+].[Re+].[Ru+2].c1ccc(-c2ccnc3c2ccc2c(-c4ccccc4)ccnc23)cc1.c1cnc2c(c1)c1nc(-c3ccncc3)[nH]c1c1cccnc12.c1cnc2c(c1)ccc1cccnc12.c1cnc2c(c1)ccc1cccnc12 [RuRe-2, [Ru(phen)2LRe(CO)3(DIP)](PF6)3] | 11.2 ± 0.9 | 2.5 ± 1.3 | 12.5 ± 0.9 | 28.1 ± 1.1 | 2.10 | no significant change | typical apoptotic characteristics | increase in intracellular ROS levels in a concentration-dependent manner | – | 3.9

From article PMC9196629, “Synthesis, Characterization and Antitumor Mechanism Investigation of Heterometallic Ru(Ⅱ)-Re(Ⅰ) Complexes” (Frontiers in Chemistry, 2022)
